From ChEMBL document CHEMBL3763069, “Synthesis of fluorinated carbazoles via C-H arylation catalyzed by Pd/Cu bimetal system and their antibacterial activities” (2016)
≈ marks a conversion by molar mass, not a printed value.

What was measured:
Format in all cases: functional
[1] = system: Bacillus subtilis; experiment: Antibacterial activity against Bacillus subtilis incubated for 20 hrs by microbroth dilution method
[2] = system: Staphylococcus aureus; experiment: Antibacterial activity against methicillin-resistant Staphylococcus aureus incubated for 20 hrs by microbroth dilution method
[3] = system: Escherichia coli; experiment: Antibacterial activity against Escherichia coli incubated for 20 hrs by microbroth dilution method
[4] = system: Staphylococcus aureus; experiment: Antibacterial activity against Staphylococcus aureus incubated for 20 hrs by microbroth dilution method

Fc1ccc2c(c1)[nH]c1cc(F)cc(F)c12
MIC [1]: 3.12 µg/mL (≈ 14.1 µM)
MIC [2]: 12.5 µg/mL (≈ 56.5 µM)
MIC [3]: 25 µg/mL (≈ 113 µM)
MIC [4]: 1.56 µg/mL (≈ 7.05 µM)

CCc1ccc2[nH]c3c(C)ccc(F)c3c2c1
MIC [1]: 3.12 µg/mL (≈ 13.7 µM)
MIC [2]: 3.12 µg/mL (≈ 13.7 µM)
MIC [4]: 3.12 µg/mL (≈ 13.7 µM)

Fc1cc(F)c2c(c1)[nH]c1ccccc12
MIC [1]: 6.25 µg/mL (≈ 30.8 µM)
MIC [2]: 12.5 µg/mL (≈ 61.5 µM)
MIC [3]: 25 µg/mL (≈ 123 µM)
MIC [4]: 25 µg/mL (≈ 123 µM)

Fc1ccc2[nH]c3c(F)cc(F)c(F)c3c2c1
MIC [1]: 3.12 µg/mL (≈ 13.1 µM)
MIC [2]: 6.25 µg/mL (≈ 26.1 µM)
MIC [4]: 1.56 µg/mL (≈ 6.52 µM)

Fc1cc(F)c2[nH]c3cc(C(F)(F)F)ccc3c2c1F
MIC [1]: 0.78 µg/mL (≈ 2.7 µM)
MIC [2]: 3.12 µg/mL (≈ 10.8 µM)
MIC [4]: 0.78 µg/mL (≈ 2.7 µM)

Cc1ccc(F)c2c1[nH]c1ccccc12
MIC [1]: 6.25 µg/mL (≈ 31.4 µM)
MIC [2]: 12.5 µg/mL (≈ 62.7 µM)
MIC [4]: 50 µg/mL (≈ 251 µM)

CCc1ccc2[nH]c3cc(F)cc(F)c3c2c1
MIC [1]: 3.12 µg/mL (≈ 13.5 µM)
MIC [2]: 3.12 µg/mL (≈ 13.5 µM)
MIC [4]: 1.56 µg/mL (≈ 6.75 µM)

Fc1ccc2c(c1)[nH]c1c(F)cc(F)c(F)c12
MIC [1]: 3.12 µg/mL (≈ 13.1 µM)
MIC [2]: 6.25 µg/mL (≈ 26.1 µM)
MIC [4]: 3.12 µg/mL (≈ 13.1 µM)

CCc1ccc2[nH]c3c(F)cc(F)c(F)c3c2c1
MIC [1]: 3.12 µg/mL (≈ 12.5 µM)
MIC [2]: 3.12 µg/mL (≈ 12.5 µM)
MIC [4]: 3.12 µg/mL (≈ 12.5 µM)

Cc1ccc2[nH]c3cc(F)cc(F)c3c2c1
MIC [1]: 3.12 µg/mL (≈ 14.4 µM)
MIC [2]: 3.12 µg/mL (≈ 14.4 µM)
MIC [4]: 100 µg/mL (≈ 460 µM)

Cc1ccc2c(c1)[nH]c1c(F)cc(F)c(F)c12
MIC [1]: 3.12 µg/mL (≈ 13.3 µM)
MIC [2]: 6.25 µg/mL (≈ 26.6 µM)
MIC [4]: 6.25 µg/mL (≈ 26.6 µM)

Cc1ccc2[nH]c3c(C)ccc(F)c3c2c1
MIC [1]: 6.25 µg/mL (≈ 29.3 µM)
MIC [2]: 6.25 µg/mL (≈ 29.3 µM)
MIC [4]: 6.25 µg/mL (≈ 29.3 µM)

Fc1cc(F)c2c(c1)[nH]c1ccc(F)cc12
MIC [1]: 3.12 µg/mL (≈ 14.1 µM)
MIC [2]: 3.12 µg/mL (≈ 14.1 µM)
MIC [3]: 12.5 µg/mL (≈ 56.5 µM)
MIC [4]: 1.56 µg/mL (≈ 7.05 µM)

Cc1ccc(F)c2c1[nH]c1cc(C(F)(F)F)ccc12
MIC [1]: 3.12 µg/mL (≈ 11.7 µM)
MIC [2]: 3.12 µg/mL (≈ 11.7 µM)
MIC [4]: 1.56 µg/mL (≈ 5.84 µM)

Cc1ccc2[nH]c3c(F)cc(F)c(F)c3c2c1
MIC [1]: 3.12 µg/mL (≈ 13.3 µM)
MIC [2]: 6.25 µg/mL (≈ 26.6 µM)
MIC [4]: 6.25 µg/mL (≈ 26.6 µM)

Cc1ccc(F)c2c1[nH]c1cc(F)ccc12
MIC [1]: 6.25 µg/mL (≈ 28.8 µM)
MIC [2]: 6.26 µg/mL (≈ 28.8 µM)
MIC [4]: 50 µg/mL (≈ 230 µM)

Fc1cc(F)c2c(c1)[nH]c1cc(C(F)(F)F)ccc12
MIC [1]: 0.78 µg/mL (≈ 2.88 µM)
MIC [2]: 3.12 µg/mL (≈ 11.5 µM)
MIC [4]: 0.39 µg/mL (≈ 1.44 µM)

Cc1ccc2c(c1)[nH]c1cc(F)cc(F)c12
MIC [1]: 3.12 µg/mL (≈ 14.4 µM)
MIC [2]: 3.12 µg/mL (≈ 14.4 µM)
MIC [4]: 3.12 µg/mL (≈ 14.4 µM)

Fc1cc(F)c2[nH]c3ccccc3c2c1F
MIC [1]: 6.25 µg/mL (≈ 28.3 µM)
MIC [2]: 12.5 µg/mL (≈ 56.5 µM)
MIC [4]: 6.25 µg/mL (≈ 28.3 µM)

CC1(C)S[C@@H]2[C@H](NC(=O)[C@H](N)c3ccccc3)C(=O)N2[C@H]1C(=O)O [AMPICILLIN]
MIC [1]: < 0.2 µg/mL
MIC [3]: 3.12 µg/mL (≈ 8.94 µM)
MIC [4]: 0.2 µg/mL (≈ 0.572 µM)

C[C@@H](O)[C@H]1C(=O)N2C(C(=O)O)=C(S[C@@H]3CN[C@H](C(=O)N(C)C)C3)[C@H](C)[C@H]12 [MEROPENEM]
MIC [1]: 3.12 µg/mL (≈ 8.15 µM)
MIC [2]: 0.78 µg/mL (≈ 2.03 µM)
MIC [3]: 0.05 µg/mL (≈ 0.13 µM)
MIC [4]: 0.78 µg/mL (≈ 2.03 µM)

CN[C@@H]1[C@H](O[C@H]2[C@H](O[C@H]3[C@H](O)[C@@H](O)[C@H](N=C(N)N)[C@@H](O)[C@@H]3N=C(N)N)O[C@@H](C)[C@]2(O)C=O)O[C@@H](CO)[C@H](O)[C@H]1O [STREPTOMYCIN]
MIC [1]: 3.21 µg/mL (≈ 5.53 µM)
MIC [2]: 3.12 µg/mL (≈ 5.37 µM)
MIC [3]: 3.12 µg/mL (≈ 5.37 µM)
MIC [4]: 3.12 µg/mL (≈ 5.37 µM)
